Experimental data reported in article PMC12416277, “Phytochemical alkaloids orchestrate immunometabolism against viral infections” (National Science Review, 2025).
Like-named read-outs stand apart in the source and are kept apart here.

Tests used:
[1] = test system: H1N1; test: H1N1 mRNA in WT, TPCN1-/-, TPCN2-/- A549 cells or with nimodipine, qRT-PCR; format: cell-based, influenza virus A (H1N1)
[2] = test system: H1N1; format: cell-based, influenza virus A (H1N1)
[3] = test system: cholesterol metabolism genes; format: cell-based, human
[4] = target: T1, NPC1 (Homo sapiens, UniProt O15118); format: binding; details: read-out: SPR KD
T1 sequence (O15118 23-1278): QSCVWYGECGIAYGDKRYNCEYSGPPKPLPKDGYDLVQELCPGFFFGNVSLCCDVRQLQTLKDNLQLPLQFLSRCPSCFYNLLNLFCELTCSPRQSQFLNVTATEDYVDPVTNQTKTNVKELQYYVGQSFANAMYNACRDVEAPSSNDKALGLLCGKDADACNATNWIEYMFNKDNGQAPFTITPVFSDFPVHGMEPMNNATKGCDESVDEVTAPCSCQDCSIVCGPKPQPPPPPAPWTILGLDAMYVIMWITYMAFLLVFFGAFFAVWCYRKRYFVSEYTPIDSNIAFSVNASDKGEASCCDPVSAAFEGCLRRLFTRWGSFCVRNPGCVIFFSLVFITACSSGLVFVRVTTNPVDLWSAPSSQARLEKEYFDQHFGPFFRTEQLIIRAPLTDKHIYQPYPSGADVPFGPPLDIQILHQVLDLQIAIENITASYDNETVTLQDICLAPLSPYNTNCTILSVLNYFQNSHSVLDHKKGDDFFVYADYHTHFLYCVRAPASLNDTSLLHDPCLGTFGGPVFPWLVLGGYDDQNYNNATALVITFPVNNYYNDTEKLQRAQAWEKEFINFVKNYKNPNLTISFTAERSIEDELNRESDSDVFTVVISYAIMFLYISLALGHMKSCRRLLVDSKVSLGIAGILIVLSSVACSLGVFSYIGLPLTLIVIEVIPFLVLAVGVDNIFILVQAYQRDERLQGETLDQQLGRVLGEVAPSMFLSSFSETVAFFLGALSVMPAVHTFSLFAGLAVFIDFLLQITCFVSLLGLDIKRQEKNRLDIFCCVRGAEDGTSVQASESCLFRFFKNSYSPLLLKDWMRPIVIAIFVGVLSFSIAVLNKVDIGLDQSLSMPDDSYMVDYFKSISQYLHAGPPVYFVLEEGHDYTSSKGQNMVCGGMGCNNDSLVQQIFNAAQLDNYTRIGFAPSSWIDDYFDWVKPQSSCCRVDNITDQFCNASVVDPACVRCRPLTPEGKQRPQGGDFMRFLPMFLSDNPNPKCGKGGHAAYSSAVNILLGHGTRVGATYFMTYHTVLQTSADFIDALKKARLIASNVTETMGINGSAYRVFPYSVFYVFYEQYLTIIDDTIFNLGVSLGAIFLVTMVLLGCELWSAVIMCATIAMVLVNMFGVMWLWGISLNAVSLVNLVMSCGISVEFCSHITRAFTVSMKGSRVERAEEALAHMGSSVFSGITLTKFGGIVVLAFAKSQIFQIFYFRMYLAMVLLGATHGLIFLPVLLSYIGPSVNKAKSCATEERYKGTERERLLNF

[5] = test system: HSV-1; test: microbe, parasite or virus in culture; format: cell-based, herpes simplex virus 1 (HSV-1); details: Human alphaherpesvirus 1, A549
[6] = test system: H1N1; test: In vivo H1N1 infection mouse model; parameters: species or system C57/BL6J mice; details: mice
[7] = test system: IFNB1, IFIT1, IFIT2 and IFI44 mRNA; test: IFNB1 and ISG mRNA expression in A549, PBMC and MEF cells (qRT-PCR); format: cell-based; details: A549, PBMC, MEF cells
[8] = test system: sgRNA-Npc1 cells; format: cell-based, mouse
[9] = target: T1, NPC1; test: Cellular thermal shift assay (CETSA); details: 150 µM, HepG2 and A549 lysates
[10] = test system: EMCV; test: microbe, parasite or virus in culture; format: cell-based, encephalomyocarditis virus (EMCV); details: Cardiovirus A, A549
[11] = test system: H1N1; test: Dose-response of infectivity, H1N1 in A549 cells (viral mRNA by qRT-PCR); format: cell-based; details: Influenza A virus; A549 cells, H1N1; read-out: EC50
[12] = test system: EMCV; format: cell-based, encephalomyocarditis virus (EMCV)
[13] = test system: HSV-1; format: cell-based, herpes simplex virus 1 (HSV-1)
[14] = test system: VSV; format: cell-based, vesicular stomatitis virus (VSV)
[15] = test system: Ifnb1, Ifit1, Ifit2 and Ifi44 mRNA; test: Ifnb1 and ISG mRNA in mouse lungs, livers, spleens after intraperitoneal injection; format: in vivo; details: intraperitoneal 30, 60 mg/kg/d, 24-48 h
[16] = test system: A549 cells; test: Transcriptome analysis (RNA-seq, GO, GSEA) of compound-treated A549 cells; details: WT A549 cells, compared among Tet, Fan, Cep, Bbm
[17] = test system: VSV; format: cell-based, vesicular stomatitis virus (VSV); remark: listed apart in the source
[18] = test system: VSV; format: cell-based, vesicular stomatitis virus (VSV); remark: listed apart in the source
[19] = test system: STING; test: DMXAA-stimulated WT or Sting-/- MEF cells, Ifnb1, Ifi44, Ccl5, Cxcl10 mRNA; format: cell-based, mouse
[20] = test system: STING-dependent antiviral immune pathway; format: cell-based
[21] = test system: EMCV; format: cell-based, encephalomyocarditis virus (EMCV); remark: listed apart in the source
[22] = test system: H1N1; test: Dose-response of infectivity, H1N1 in L929 cells; format: cell-based; details: Influenza A virus
[23] = test system: HSV-1; test: microbe, parasite or virus in culture; format: cell-based, herpes simplex virus 1 (HSV-1); details: Human alphaherpesvirus 1, L929
[24] = test system: STING; format: cell-based
[25] = H1N1, intranasal administration

SMILES: COc1ccc2cc1Oc1ccc(cc1)C[C@H]1c3cc(c(OC)cc3CCN1C)Oc1c(OC)c(OC)cc3c1[C@H](C2)N(C)CC3 [Tet, tetrandrine]
- H1N1 replication [1]: suppressed
- antiviral efficacy ([1]; with nimodipine treatment): remained unchanged
- antiviral effect against H1N1 [2]: diminished
- expression of genes involved in cholesterol synthesis (SREBF2, HMGCR, SQLE, SREBP1C, DHCR24, DHCR7, FASN) and absorption (LDLR) [3]: increased expression
- expression of genes related to cholesterol transport (ABCA1, ABCG1), oxidation (CYP27A1, CYP46A1) or esterification (ACAT1, ACAT2) [3]: did not affect the expression
- Kd [4]: 22200 nM
- EC50 [5]: 1590 nM
- NP protein expression in lung tissue ([6]; H1N1): inhibited
- alveolar damage and inflammatory infiltrations in lung tissues (H&E) ([6]; H1N1): significantly alleviated
- body weight recovery [6, 25]: expedited body weight recovery
- survival rates [6, 25]: improved survival rates
- IFNB1 and ISGs mRNA [7]: upregulation
- antiviral effects [8]: attenuated but restored with Flag-tagged NPC1 reintroduction
- NPC1 stability (CETSA) [9]: enhanced NPC1 stability against degradation
- EC50 [10]: 231 nM
- EC50 [11]: 330 nM
- EMCV attachment [12]: without affecting virus attachment
- EMCV infection during entry or post-entry stages [12]: inhibited
- antiviral effect against HSV-1 [13]: markedly reduced
- VSV attachment [14]: without affecting virus attachment
- VSV infection during entry or post-entry stages [14]: inhibited
- VSV-eGFP entry into lysosomes [14]: blocked
- Ifnb1 and ISGs mRNA levels in vivo [15]: increased Ifnb1 and ISGs mRNA levels in vivo, particularly in lungs and livers
- expression of antiviral immune-related genes [16]: higher expression
- antiviral effect on VSV entry ([17]; MβCD pretreatment (cholesterol depleted)): abolished
- antiviral effect on VSV entry ([17]; cholesterol supplementation using MβCD-cholesterol): restored inhibition
- VSV replication [18]: suppressed
- antiviral efficacy [18]: remained unchanged
- Ifnb1, Ifi44, Ccl5 and Cxcl10 gene expression ([19]; DMXAA treated Sting-/- MEF cells): abolished
- Ifnb1, Ifi44, Ccl5 and Cxcl10 gene expression ([19]; DMXAA treated WT MEF cells): increased
- IFNB1 and ISGs gene expression [20]: significantly increased
- EMCV infection [21]: effectively suppressed
- EC50 [22]: 541 nM
- EC50 [23]: 132 nM
- time-dependent degradation of STING induced by DMXAA [24]: significantly attenuated
